Read-outs that look alike come from different tables or passages of the source. Values belong to the compound of their own block, whether it stands above or below them.
How the values were obtained:
[1] = dissolving profile of film-coated tablet; type: physicochemical; settings: within 15 minutes
Description: In addition, an improved dissolving profile in a tablet can be assured. In studies of the dissolving profile, it was established that the calcium salt, especially the tetrahydrate thereof, is released by 100% from a film-coated tablet within 15 minutes.
In addition, an improved dissolving profile in a tablet can be assured. In studies of the dissolving profile, it was established that the magnesium salt, especially the hexahydrate thereof, is released by 100% from a film-coated tablet within 15 minutes.

[2] = intrinsic dissolving rates; type: physicochemical; settings: pH 1, pH 4.5 and pH 6.8; compared with valsartan
[3] = N2 atmosphere, heating rate 10 K/min
[4] = 25° C., 4 hours
[5] = open container and sealed ampoule
[6] = hygroscopicity of the material obtained; type: physicochemical; settings: material as obtained
[7] = step 1, relative humidity 40% (cycle 40-90)
[8] = step 2, relative humidity 50% (cycle 40-90)
[9] = step 3, relative humidity 60% (cycle 40-90)
[10] = step 4, relative humidity 70% (cycle 40-90)
[11] = step 5, relative humidity 80% (cycle 40-90)
[12] = step 6, relative humidity 90% (cycle 40-90)
[13] = step 7, relative humidity 80% (first cycle 90-0)
[14] = step 8, relative humidity 70% (first cycle 90-0)
[15] = step 9, relative humidity 60% (first cycle 90-0)
[16] = step 10, relative humidity 50% (first cycle 90-0)
[17] = step 11, relative humidity 40% (first cycle 90-0)
[18] = step 12, relative humidity 30% (first cycle 90-0)
[19] = step 13, relative humidity 20% (first cycle 90-0)
[20] = step 14, relative humidity 10% (first cycle 90-0)
[21] = step 15, relative humidity 0% (first cycle 90-0)
[22] = step 16, relative humidity 10% (cycle 0-90)
[23] = step 17, relative humidity 20% (cycle 0-90)
[24] = step 18, relative humidity 30% (cycle 0-90)
[25] = step 19, relative humidity 40% (cycle 0-90)
[26] = step 20, relative humidity 50% (cycle 0-90)
[27] = step 21, relative humidity 60% (cycle 0-90)
[28] = step 22, relative humidity 70% (cycle 0-90)
[29] = step 23, relative humidity 80% (cycle 0-90)
[30] = step 24, relative humidity 90% (cycle 0-90)
[31] = step 25, relative humidity 0% (second cycle 90-0)
[32] = step 26, relative humidity (starting value)

- release from a film-coated tablet [1]: 100%
- intrinsic dissolving rates [2]: improved values over those of valsartan
Compound: CCCCC(=O)N(Cc1ccc(-c2ccccc2-c2nn[n-]n2)cc1)C(C(=O)[O-])C(C)C.[Ca+2] (centres unmarked) [calcium salt of valsartan]

- intrinsic dissolving rates [2]: improved values over those of valsartan
Compound: CCCCC(=O)N(Cc1ccc(-c2ccccc2-c2nn[n-]n2)cc1)C(C(=O)[O-])C(C)C.[K+].[K+] (centres unmarked) [di-potassium salt of valsartan]

- hygroscopicity [6]: slightly hygroscopic
Compound: Hydrate of Valsartan Disodium Salt (2.4 ±1.0 Mole H2O) [Example 11]

- hygroscopicity [6]: slightly hygroscopic
Compound: Hydrate of the Valsartan Dipotassium Salt (3.4±1.0 mole H2O) [Example 12]

Second part, the compound before the results:

Compound: CCCCC(=O)N(Cc1ccc(-c2ccccc2-c2nnn[nH]2)cc1)[C@H](C(=O)[O-])C(C)C.CCCCC(=O)N(Cc1ccc(-c2ccccc2-c2nnn[nH]2)cc1)[C@H](C(=O)[O-])C(C)C.O.O.O.O.O.O.[Mg+2] [hexahydrate of the magnesium salt of (S)-N-(1-carboxy-2-methylprop-1-yl)-N-pentanoyl-N-[2′-(1H-tetrazol-5-yl)biphenyl-4-ylmethyl]-amine]
- weight loss or water loss in % ([3]; 25° C.): 0%
- weight loss or water loss in % ([3]; 50° C.): 1.2%
- weight loss or water loss in % ([3]; 75° C.): 4.2%
- weight loss or water loss in % ([3]; 100° C.): 11.0%
- weight loss or water loss in % ([3]; 125° C.): 16.7%
- weight loss or water loss in % ([3]; 150° C.): 17.7%
- weight loss or water loss in % ([3]; 175° C.): 18.3%
- weight loss or water loss in % ([3]; 200° C.): 18.5%
- weight loss or water loss in % ([3]; 225° C.): 18.7%
- weight loss or water loss in % ([3]; 250° C.): 18.9%
- weight loss or water loss in % ([3]; 275° C.): 19.3%
- water absorption or water loss (overall finding) ([4]; range of 20 to 80% relative humidity, measurement error about 0.1%): weak, reproducible water absorption or water loss
- water absorption or loss in % [4, 7]: 0.06%
- water absorption or loss in % [4, 8]: 0.14%
- water absorption or loss in % [4, 9]: 0.19%
- water absorption or loss in % [4, 10]: 0.25%
- water absorption or loss in % [4, 11]: 0.41%
- water absorption or loss in % [4, 12]: 0.58%
- water absorption or loss in % [4, 13]: 0.32%
- water absorption or loss in % [4, 14]: 0.22%
- water absorption or loss in % [4, 15]: 0.14%
- water absorption or loss in % [4, 16]: 0.08%
- water absorption or loss in % [4, 17]: 0.16%
- water absorption or loss in % [4, 18]: −0.03%
- water absorption or loss in % [4, 19]: −0.07%
- water absorption or loss in % [4, 20]: −0.12%
- water absorption or loss in % [4, 21]: −4.3%
- water absorption or loss in % [4, 22]: −0.79%
- water absorption or loss in % [4, 23]: −0.14%
- water absorption or loss in % [4, 24]: −0.05%
- water absorption or loss in % [4, 25]: 0.02%
- water absorption or loss in % [4, 26]: 0.09%
- water absorption or loss in % [4, 27]: 0.14%
- water absorption or loss in % [4, 28]: 0.20%
- water absorption or loss in % [4, 29]: 0.28%
- water absorption or loss in % [4, 30]: 0.51%
- water absorption or loss in % [4, 31]: −3.68%
- water absorption or loss in % [4, 32]: −0.01%
- water content in stability test [5]: remains constant

Compound: (S)-N-(1-carboxy-2-methyl-prop-1-yl)-N-pentanoyl-N-[2′-(1H-tetrazol-5-yl)-biphenyl-4-ylmethyl]-amine calcium salt tetrahydrate
- weight loss or water loss in % ([3]; 25° C.): 0%
- weight loss or water loss in % ([3]; 50° C.): 0%
- weight loss or water loss in % ([3]; 75° C.): 0.5%
- weight loss or water loss in % ([3]; 100° C.): 3.5%
- weight loss or water loss in % ([3]; 125° C.): 10.2%
- weight loss or water loss in % ([3]; 150° C.): 12.4%
- weight loss or water loss in % ([3]; 175° C.): 12.8%
- weight loss or water loss in % ([3]; 200° C.): 12.9%
- weight loss or water loss in % ([3]; 225° C.): 12.9%
- weight loss or water loss in % ([3]; 250° C.): 13.0%
- weight loss or water loss in % ([3]; 275° C.): 13.2%
- water absorption or loss (overall finding) ([4]; 0 to 90% relative humidity, measurement error about 0.1%): no measurable water absorption or loss
- water absorption or loss in % [4, 7]: 0.04%
- water absorption or loss in % [4, 8]: 0.04%
- water absorption or loss in % [4, 9]: 0.03%
- water absorption or loss in % [4, 10]: 0.02%
- water absorption or loss in % [4, 11]: 0.02%
- water absorption or loss in % [4, 12]: 0.00%
- water absorption or loss in % [4, 13]: 0.02%
- water absorption or loss in % [4, 14]: 0.02%
- water absorption or loss in % [4, 15]: 0.02%
- water absorption or loss in % [4, 16]: 0.02%
- water absorption or loss in % [4, 17]: 0.02%
- water absorption or loss in % [4, 18]: 0.01%
- water absorption or loss in % [4, 19]: 0.01%
- water absorption or loss in % [4, 20]: 0.00%
- water absorption or loss in % [4, 21]: −0.01%
- water absorption or loss in % [4, 22]: 0.00%
- water absorption or loss in % [4, 23]: 0.00%
- water absorption or loss in % [4, 24]: 0.00%
- water absorption or loss in % [4, 25]: 0.00%
- water absorption or loss in % [4, 26]: 0.00%
- water absorption or loss in % [4, 27]: 0.01%
- water absorption or loss in % [4, 28]: 0.00%
- water absorption or loss in % [4, 29]: −0.01%
- water absorption or loss in % [4, 30]: −0.02%
- water absorption or loss in % [4, 31]: −0.02%
- water absorption or loss in % [4, 32]: 0.00%
- water content in stability test [5]: remains constant

Compound: (S)-N-(1-carboxy-2-methyl-prop-1-yl)-N-pentanoyl-N-[2′-(1H-tetrazol-5-yl)-biphenyl-4-ylmethyl]-amine dipotassium salt [Example 4]
- hygroscopicity [6]: hygroscopic

Compound: (S)-N-(1-carboxy-2-methyl-prop-1-yl)-N-pentanoyl-N-[2′-(1H-tetrazol-5-yl)-biphenyl-4-ylmethyl]-amine disodium salt [Example 5]
- hygroscopicity [6]: hygroscopic

Compound: Bis-dibutylammonium Salt of Valsartan [Example 16]
- hygroscopicity [6]: slightly hygroscopic

Source: patent US20030207930A1 (priority 2000, published 2003)
